From patent publication US20240245633A1, “ROR Gamma Agonists as Enhancers of Protective Immunity” (University of Florida Research Foundation, Incorporated, priority 2015, published 2024) come the findings set out here.

For one assay, the target named is T1, full length RORγt (Homo sapiens, UniProt P51449).
T1 construct: full length RORγt was co-transfected along with a luciferase reporter; expressed in transfected cells; host or cells: HEK293T
T1 sequence (P51449 1-497 isoform P51449-2): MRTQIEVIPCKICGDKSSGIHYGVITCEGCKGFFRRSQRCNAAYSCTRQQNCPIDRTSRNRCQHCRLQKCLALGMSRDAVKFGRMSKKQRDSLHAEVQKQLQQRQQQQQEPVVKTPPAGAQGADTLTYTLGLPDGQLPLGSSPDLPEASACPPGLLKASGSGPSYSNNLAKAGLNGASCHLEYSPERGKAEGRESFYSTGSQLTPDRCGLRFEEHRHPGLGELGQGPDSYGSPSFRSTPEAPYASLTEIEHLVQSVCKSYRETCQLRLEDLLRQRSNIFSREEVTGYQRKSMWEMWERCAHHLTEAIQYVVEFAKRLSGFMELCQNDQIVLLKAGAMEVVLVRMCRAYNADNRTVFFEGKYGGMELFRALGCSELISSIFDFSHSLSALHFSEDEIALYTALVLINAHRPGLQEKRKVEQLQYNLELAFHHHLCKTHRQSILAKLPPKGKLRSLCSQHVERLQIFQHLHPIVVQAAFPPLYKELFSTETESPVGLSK
Description: Full-length RORγt co-transfection with IL17-Luc reporter in HEK293T cells. It is filed as cell-based. The settings on record: 2 μM ursolic acid. From the text: In order to determine if these compounds could modulate RORγt activity in the context of the full-length receptor, we used a co-transfection system in HEK293T cells in which full length RORγt was co-transfected along with a luciferase reporter under the control of either a basic promoter containing five copies of an ROR response element (5×RORE) or a minimal IL17 promoter.

A further assay has as its target T2, Gal4-RORγ (Homo sapiens, UniProt P51449).
T2 sequence (P51449 269-508 limits assumed): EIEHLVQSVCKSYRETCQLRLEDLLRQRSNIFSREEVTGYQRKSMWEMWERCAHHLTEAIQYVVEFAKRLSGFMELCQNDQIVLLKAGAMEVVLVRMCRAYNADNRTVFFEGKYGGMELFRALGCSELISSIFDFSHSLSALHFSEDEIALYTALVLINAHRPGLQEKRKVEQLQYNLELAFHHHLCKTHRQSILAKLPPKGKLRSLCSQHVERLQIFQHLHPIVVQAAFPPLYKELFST
Description: cell-based. As to conditions: HEK-293T, read-out: fold induction of reporter gene expression. (In a reporter assay the amount or activity of a reporter protein is the signal.)

In assay [1] the test system is differentiated TH17 cells. Description: TH17 cell differentiation, flow cytometry. In kind it is cell-based, murine. The settings on record: murine TH17 cells. As to the method: (§1) Using flow cytometery surface PD-1 expression was analyzed to determine if the decrease in gene expression of PD-1 correlates to a decrease of the protein on the cell surface, Cell: surface PD-1 expression was measured in murine and human T cell lines as well as in ex vivo differentiated murine TH17 cells. […] Next we examined the impact of compound treatment on differentiated murine TH17 cells. […] To determine if there was an increase in the active T cell population during TH17 cell differentiation, the population of CD62L^−PD1^− double negative cells was measured using flow cytometry. […] To determine if the effects of SR0987 on PD-1 expression would be observed in a human cell line, Jurkat T cells were treated with the compound.
TH17 cell differentiation. For naïve T cell differentiation, CD4^+T cells were enriched by negative selection using a magnetic-activated cell sorter kit (Millipore). Enriched CD4+ T cells activated with 5 μg/mL of plate-abound anti CD3 antibody and 1 μg/mL of anti-CD28 antibody in the presence of 20 μg/mL of anti-IFNγ, 20 μg/mL of anti-IL-4, 1 ng/mL of TGFβ, AND 10 ng/mL of IL-6. Four-five days post differentiation, all cells were stimulated for 5 hr with 5 ng/mL of phorbol-12-myristate-13-acetate (Sigma) and 500 ng/mL of ionomycin (Sigma) contained with brefeldin A solution (eBioscience).
Background: In flow cytometry, cells or beads pass a laser one at a time.

The next assay relates to EL4 cells. Description: PD-1 surface expression in EL4 cells by flow cytometry. In kind it is cell-based, murine. The settings on record: compound 48 hr. As to the method:
as §1
Gene expression and Cell sorting. Jurkat T cells were pre-incubated with compounds for 48 hr and activated with phorbol 12-myristate 13-acetate (PMA, 50 ng/mL; Sigma) and ionomycin (1 μg/mL; Sigma) for 5 hr. For qPCR, mRNA was isolated with an RNeasy midi kit using DNase I (Qiagen), and cDNA was synthesized with high capacity cDNA Reverse Transcription kit (Applied Biosystems). IL17A, PD-1, and granzyme B gene expression were normalized to the expression of GAPDH. The sequence of primers used in this study are found in Table 2. For cell sorting, activated Jurkat T cells were stained with APC conjugated anti-human PD-1 antibody (eBioscience). […]

For the compound `CC(C)=CCC[C@@H](C)[C@H]1CC[C@H]2[C@@H]3CC=C4C[C@@H](O)CC[C@]4(C)[C@H]3CC[C@]12C` [desmosterol], at full length RORγt, the “reporter gene expression, IL17 promoter” value is reported as “minimal induction of the reporter gene”. The fold induction at 30 µM on Gal4-RORγ is at least 2. Besides, in assay [1], the “IL17 production (intracellular staining of IL17A)” value is reported as “trend towards increased IL17 production” and the “surface PD-1 expression” value is “no effect”. The “surface expression of PD-1” value in the assay on EL4 cells is “no effect”.
